# Laboratory results reported in patent US11286304B2, “Anti-galectin-7 antibody, kit comprising the same, and uses thereof” (Academia Sinica, priority 2018, dated 2022).
# Assays:
# galectin-7 [1] = assay: Galectin-7 protein in lung cancer cells (immunoblot); type: cell-based, human; conditions: for effect on fluvastatin-induced galectin-7 upregulation: co-administered with fluvastatin, 200 μM Mevalonate, 20 μM GGPP, 20 μM FPP
# Experimental: (§1) CL83, CL141, CL100, CL25, PC9, PC9-IR, CL97, H1975, and H3255 cells were obtained from Dr. Pan-Chyr Yang (National Taiwan University, Taiwan), and A-431 (ATCC© CRL-1555™), H1650 ((ATCC© CRL-5883™)) and HCC827 ((ATCC© CRL-2868™)) cells were purchased from ATCC. Cells were cultured in RPMI 1640 medium supplemented with 10% fetal bovine serum (Gibco). The mRNA of A549, H23, H226BR, H358, H460, H661, H928, H1299, H1435, and H1437 cells were produced by conventional method, such as the method as described herein.
# Lysates from different lung cancer cell samples were prepared and aliquots containing 30 μg of protein from each lysate were analyzed using either 10% or 12% sodium dodecyl sulfate-polyacrylamide gel electrophoresis (SDS-PAGE). A polyvinylidene difluoride Immobilon H-bond membrane (EMD Millipore) was used for immunoblot analysis. The primary antibody against galectin-7 (Novagen) was used.
# IL-8 = IL-8 production by keratinocytes (ELISA); type: cell-based, human; conditions: for IL-8 production induced by IL-17A: galectin-7 knockdown keratinocytes, data not shown; for IL-8 production: HaCaT and HEKn cells subjected to immune stimuli, ELISA
# Experimental: (§2) To measure the concentrations of proinflammatory cytokines secreted by keratinocytes, 2×10^4 cells were seeded in 96-well plates. Cells were incubated for 24 hours and then treated with 50 μg/ml LPS, 100 ng/ml human TNF-α, 100 or 200 ng/ml human IL-17A, 200 ng/ml human IL-22, 100 ng/ml human IL-23, or 50 ng/ml IFN-γ at 37° C. for 48 hours. In addition, the MEK inhibitor PD98059 was added along with stimulation by LPS or IL-17A (48 hours). The supernatants were then collected and analyzed by ELISAs, which were performed using a specific combination of paired antibodies (capture and detection antibodies).
# IL-6 = IL-6 production by keratinocytes (ELISA); type: cell-based, human; conditions: for IL-6 production induced by IL-17A: galectin-7 knockdown keratinocytes, data not shown; for IL-6 production: HaCaT and HEKn cells subjected to immune stimuli, ELISA
# Experimental: as §2
# galectin-7 [2] = assay: Galectin-7 expression in keratinocytes (real-time PCR, immunoblot); type: cell-based, human; conditions: for galectin-7 expression: keratinocytes, other statin drugs, data not shown; for galectin-7 mRNA and protein expression: 24 hours, methylprednisolone 10.6 μM, tobramycin 8.6 μM, fluvastatin 9.2 μM, pempidine 13 μM; for galectin-7 protein expression: treated with cytokines for 2 days, immunoblot
# Experimental: Human keratinocyte cell line HaCaT was maintained at 37° C. in Dulbecco's modified Eagle's medium (DMEM) supplemented with 10% of fetal bovine serum (FBS), 2 mM glutamine, 100 U/ml penicillin and 100 μg/ml streptomycin. Short hairpin RNA (shRNA) reagents were obtained from the National RNAi Core Facility located at the Institute of Molecular Biology and Genomic Research Center, Academia Sinica, supported by the National Core Facility Program for Biotechnology Grants of NSC. Four shRNAs with clone IDs of TRCN0000057393, TRCN0000057394, TRCN0000057395, and TRCN0000057396 were used to generate stable galectin-7 knockdown HaCaT clones. HaCaT cells were infected with one of the four shRNA-expressing lentiviruses and puromycin was employed to select stable cell clones after 3 days of infection. After puromycin selection, four individual pooled clones were cultured in puromycin-free medium for 2 weeks before further analysis.
# Primary neonatal human epithelial keratinocytes, HEKn cells, were purchased from Gibco. HEKn cells were cultured at 37° C. in keratinocyte serum-free medium (K-SFM) supplemented with 30 μg/ml bovine pituitary extract and 5 ng/ml recombinant human epidermal growth factor from the same company. Compared with HaCaT cells, HEKn cells have a limited proliferation ability and are not suitable for establishing shRNA-based stable knockdown cells; therefore, a small interfering RNA (siRNA) oligo was used to transiently knock down the expression of galectin-7. The Silencer® Select siRNAs were purchased from Invitrogen, including negative control #1 and a predesigned siRNA targeting human galectin-7 (Catalog number: s230574, which targets the sequence of exon 3 of NM_002307.3). Thirty picomoles of siRNAs were delivered into HEKn cells in a 6-well plate setup by means of Lipofectamine 2000.
# Cells were harvested and lysed in RIPA lysis buffer containing 1% of Triton X-100 and a protease inhibitor cocktail, and total protein concentrations were measured with a protein assay kit. Proteins in the samples of the lysates with the same amounts of total protein were separated by sodium dodecyl sulfate polyacrylamide gel electrophoresis (SDS-PAGE) and analyzed by immunoblotting. Primary antibodies against phospho-Erk1 (pT202)/Erk2 (pT185), Erk1, Erk2, NF-κB p65, phospho-NF-κB p65 (pS536), IκBα, phospho-IκBα pS32, β-actin, or GAPDH were applied to detect the corresponding proteins. Horseradish peroxidase (HRP)-conjugated secondary antibodies against mouse, rabbit, or goat IgG were then incubated with the membranes, and proteins were visualized by chemiluminescence according to the manufacturer's instructions. Protein quantification was performed by software.
# Total RNAs (including mRNA and miRNA) were extracted from cultured cells or mouse ears with the TRIzol Reagent. For measurement of human galectin-7, IL-6, IL-8, IL-17A, and IFN-γ levels, mRNAs were reverse-transcribed into cDNA by means of the cDNA synthesis kit, and real-time PCR was carried out with specific probes accompanied with primers targeting humangalectin-7, IL-6, and IL-8 according to the manufacturer's instructions.
# galectin-7 [3] = assay: Galectin-7 levels in lung cancer tumors transplanted in NOD SCID mice (IHC, immunoblot); type: in vivo; conditions: NOD SCID mice with A549, PC9, PC9-IR cells, 30 mg/kg daily oral gavage, day 21, vs saline
# Experimental: NOD.CB17-Prkdcscid/JNarl mice obtained from National Laboratory Animal Center (Taiwan) were engrafted 2×10^6 lung cancer cells subcutaneously at the left and right flanks of the mice. After 10 days of tumor growth, mice were treated by oral gavage with 30 mg/kg fluvastatin or lovastatin in saline solution, or saline solution alone as control, once per day for 21 days. The tumor plaques were harvested and each of them was cut into two pieces. One piece was for immunoblot analysis, and the other one was fixed with 10% formalin and embedded into paraffin block for IHC staining. All animal studies were conducted in the experimental animal facilities of Institute of Biomedical Sciences, Academia Sinica, Taipei, Taiwan, in accordance to institutional rules and ethical guidelines for experimental animal care.
# S100A7 = S100A7 mRNA expression in HaCaT cells (real-time PCR); type: cell-based, human; conditions: 24 hours, methylprednisolone 10.6 μM, tobramycin 8.6 μM, fluvastatin 9.2 μM, pempidine 13 μM
# galectin-7 [4] = assay: Galectin-7 mRNA in lung cancer cell lines (qPCR); type: cell-based, human; conditions: CL100 and PC9-IR cells, 24 hours; methylprednisolone 10.6 μM, tobramycin 8.6 μM, fluvastatin 9.2 μM, pempidine 13 μM
# Experimental: as §1
# Total RNA from each lung cancer cell clone was extracted using TRIzol Reagent (Invitrogen), and cDNA for real-time PCR was generated using the iScript cDNA synthesis kit (Bio-Rad). Quantitative real-time PCR was performed using TaqMan buffer (Roche), and the primers and probes were designed using the Roche Universal Library (UPL). […] For real-time PCR, the CFX Connect Real-Time PCR System (Bio-Rad) was used, and the data were analyzed using CFX Manager software, in which the ΔΔCt method was employed to normalize the data against the endogenous control GAPDH.
# miR-146a = miR-146a expression in keratinocytes (real-time PCR); type: cell-based, human; conditions: HaCaT and HEKn cells treated with IL-17A
# Experimental: For miR-146a quantification, total RNA samples were converted to cDNA, and real-time PCR was conducted with specific primers targeting miR-146a. Human GAPDH and U6 snRNA were selected as internal controls for normalization of the levels of mRNAs and miRNAs, respectively. Relative levels of mRNAs and miRNAs were calculated, and fold changes were obtained by the ΔΔCt method and compared with vector-only control cells.
compound,measurement,setting,value
CC(C)=CCC/C(C)=C/CC/C(C)=C/COP(=O)(O)OP(=O)(O)O [FPP],effect on fluvastatin-induced galectin-7 upregulation,"galectin-7 [1]; PC9-IR cells, 24 hours",blocked
"CC(C)=CCCC(C)=CCCC(C)=CCSc1ccccc1C(=O)O [FTS, farnesyl thiosalicylic acid]",galectin-7 expression,"galectin-7 [1]; PC9-IR cells, 1 μM fluvastatin, FTS, 24 hours",increased galectin-7 expression
CC(C)=CCC/C(C)=C/CC/C(C)=C/CC/C(C)=C/COP(=O)(O)OP(=O)(O)O [GGPP],effect on fluvastatin-induced galectin-7 upregulation,"galectin-7 [1]; PC9-IR cells, 24 hours",blocked
COc1cccc(-c2cc(=O)c3ccccc3o2)c1N [PD98059],IL-8 production induced by IL-17A,IL-8,significantly blocked
same,IL-6 production induced by IL-17A,IL-6,significantly blocked
S=C(S)N1CCCC1 [PDTC],IL-8 production induced by IL-17A,IL-8,not blocked
same,IL-6 production induced by IL-17A,IL-6,not blocked
C[S+]([O-])c1ccc(-c2nc(-c3ccncc3)c(-c3ccc(F)cc3)[nH]2)cc1 (centres unmarked) [SB203580],IL-8 production induced by IL-17A,IL-8,not blocked
same,IL-6 production induced by IL-17A,IL-6,not blocked
CC(C)c1c(C(=O)Nc2ccccc2)c(-c2ccccc2)c(-c2ccc(F)cc2)n1CC[C@@H](O)C[C@@H](O)CC(=O)O [atorvastatin],galectin-7 expression,galectin-7 [2],induced galectin-7 expression
COc1cc2ncnc(Nc3ccc(F)c(Cl)c3)c2cc1OCCCN1CCOCC1 [gefitinib],galectin-7 level (endogenous),"galectin-7 [1]; CL25 and CL100 cells, 10 μM, 24 hours",downregulated
same,level of ectopically overexpressed galectin-7,"galectin-7 [1]; CL83, CL141 and PC9 cells, 10 μM, 24 hours",also downregulated
CC[C@H](C)C(=O)O[C@H]1C[C@@H](C)C=C2C=C[C@H](C)[C@H](CC[C@@H]3C[C@@H](O)CC(=O)O3)[C@H]21 [lovastatin],galectin-7 expression,galectin-7 [2],induced galectin-7 expression
same,galectin-7 expression in transplanted tumors,galectin-7 [3],increased
CC(O)(CCO)CC(=O)O (centres unmarked) [mevalonate],effect on statin-induced upregulation of galectin-7,"galectin-7 [1]; PC9-IR cells, 200 μM mevalonate with 10 μM statins, 24 hours",reversed
same,effect on fluvastatin-induced galectin-7 upregulation,"galectin-7 [1]; PC9-IR cells, 24 hours",reversed
CC[C@H](C)C(=O)O[C@H]1CCC=C2C=C[C@H](C)[C@H](CC[C@@H]3C[C@@H](O)CC(=O)O3)[C@H]21 [mevastatin],galectin-7 expression,galectin-7 [2],induced galectin-7 expression
CN1C(C)(C)CCCC1(C)C [pempidine],galectin-7 mRNA and protein expression,galectin-7 [2]; HaCaT cells,only fluvastatin induced
same,S100A7 mRNA expression,S100A7,only fluvastatin
same,galectin-7 expression (LGLAS7 mRNA),galectin-7 [4],only fluvastatin induced
O=C(O)C[C@H](O)C[C@H](O)/C=C/c1c(C2CC2)nc2ccccc2c1-c1ccc(F)cc1 [pitavastatin],galectin-7 expression,galectin-7 [2],induced galectin-7 expression
NC[C@H]1O[C@H](O[C@H]2[C@H](O)[C@@H](O[C@H]3O[C@H](CO)[C@@H](O)[C@H](N)[C@H]3O)[C@H](N)C[C@@H]2N)[C@H](N)C[C@@H]1O [tobramycin],galectin-7 mRNA and protein expression,galectin-7 [2]; HaCaT cells,only fluvastatin induced
same,S100A7 mRNA expression,S100A7,only fluvastatin
same,galectin-7 expression (LGLAS7 mRNA),galectin-7 [4],only fluvastatin induced
"IFN-γ: interferon (IFN)-γ, immune stimulus",galectin-7 protein expression,galectin-7 [2]; HaCaT cells,modest effects
same,IL-8 production,IL-8,"only IL-17A (FIG. 2), TNF-α, and LPS (data not shown) induced"
same,IL-6 production,IL-6,"only IL-17A (FIG. 2), TNF-α, and LPS (data not shown) induced"
IL-17A: cytokine known to promote psoriatic inflammation,miR-146a expression,miR-146a,induced miR-146a expression
same,galectin-7 protein expression,galectin-7 [2]; HEKn cells,reduced
same,galectin-7 protein expression,galectin-7 [2]; HaCaT cells,reduced
same,IL-8 production,IL-8,induced
same,IL-6 production,IL-6,induced
IL-21: immune stimulus,IL-8 production,IL-8,"only IL-17A (FIG. 2), TNF-α, and LPS (data not shown) induced"
same,IL-6 production,IL-6,"only IL-17A (FIG. 2), TNF-α, and LPS (data not shown) induced"
TNF-α,galectin-7 protein expression,galectin-7 [2]; HaCaT cells,significantly reduced
same,IL-8 production,IL-8,induced
same,IL-6 production,IL-6,induced
"epidermal growth factor (EGF): epidermal growth factor, activates EGFR signaling",galectin-7 expression,"galectin-7 [1]; CL25, CL100, PC9 and PC9-IR cells starved overnight, 10 ng/ml EGF",transiently upregulated
